# Patent US8895032B2, “Dendritic nano-antioxidants” (Central Michigan University, priority 2009, dated 2014)
# Several values for one entry are separate records, joined by “and”; a condition that tells them apart may be missing. Identical values can stand only once. Like-named read-outs stand apart in the source and are kept apart here.
# Assays:
# Human LDL = assay: Protection of LDL from AAPH oxidation (agarose gel electrophoresis); type: biochemical; conditions: 37° C.
# DPPH radical assay = conditions: for time to reach plateau / steady state with DPPH•: 50 μM syringaldehyde, 12.5 μM Trolox and ascorbic acid, methanol, room temperature, 515 nm; for IC50: read-out: DPPH IC50 at 120 min, Example 15
# [1] = ABTS radical cation decolorization assay; type: biochemical; conditions: for IC50: final concentration in the cuvet, read-out: concentration at which 50% inhibition of ABTS•+ was observed; for Slope of % decrease in absorbance at 6 min versus antioxidant concentration: linear regression, concentration in μM; for TEAC: slope divided by that of Trolox, % decrease in A734 at 6 min, ethanol
# Text: We have tested AO activity of G1 (13) using ABTS as a radical source using a previously reported spectroscopic assay. The AO activity of the G1 (13) was compared to those of syringaldehyde, gallic acid, and vitamin C. If the phenolic OH group is the radical scavenging site, the expected AO activity of the G1 (13) should be 4 fold higher than that of syringaldehyde and 1.3 fold higher than that of gallic acid (which has three phenolic OH groups).
# ABTS radical cation decolorization assay was used as previously described (Ozgen, et al. J. Agric. Food Chem. 2006, 54, 1151-1157, incorporated herein by reference in its entirety). Like the DPPH assay, this was also a decolorization assay and measured absorbance decrease at 734 nm as the ABTS radical (ABTS•+) is quenched by the antioxidant. The solvent used for the assay was ethanol. ABTS reagent was added to 1.0 mL solvent in a cuvet to bring the absorbance to 0.7. A 10 μL sample of antioxidant was then added, mixed, and the absorbance monitored at 734 nm for 6 min. Antioxidant concentrations were 14.4 μM Trolox, 11.4 μM ascorbic acid, 15.4 μM syringaldehyde, and 3 μM compound 1. The % decrease in absorbance at 6 min was plotted against antioxidant concentrations. The gradient of the line obtained by linear regression for a given antioxidant was divided by that obtained for Trolox to yield Trolox equivalent antioxidant (TEAC) values. All samples were made in ethanol and run in triplicates and at room temperature.
IC50 (DPPH radical assay) [µM],IC50 [1] [µM],SMILES,# of DDPH• reduced per antioxidant molecule (1/stoichiometry) (DPPH radical assay),"Antioxidant Capacity Relative to Trolox, DPPH (DPPH radical assay)",time to reach plateau / steady state with DPPH• (DPPH radical assay; 5 μM compound 1),"Antioxidant Capacity Relative to Trolox, ABTS [1]",Slope of % decrease in absorbance at 6 min versus antioxidant concentration [1],TEAC [1],further results
4,~1.5,COc1cc(CN(Cc2ccc(CN(Cc3cc(OC)c(O)c(OC)c3)Cc3cc(OC)c(O)c(OC)c3)cc2)Cc2cc(OC)c(O)c(OC)c2)cc(OC)c1O [Compound 1],8.8,4.9,approximately 45 min,8.5,33.9,8.48,"protection of LDL from AAPH free radicals (anodic migration) (Human LDL; 10 mM AAPH, 18 h): most efficient in protecting LDL; only concentration effective in protecting LDL (Human LDL; 20 mM AAPH, 21 h): 30 µM; DPPH• remaining at plateau (DPPH radical assay; 5 μM compound 1): 46%; DPPH• remaining in two minutes (DPPH radical assay; 5 μM compound 1): 60%; decrease in DDPH• (DPPH radical assay; 5 μM solution): 60%; Antioxidant Capacity Relative to Trolox, DPPH (DPPH radical assay; listed as compound 1): ~5 and 4.9; DPPH antioxidant capacity, times better than ascorbic acid (DPPH radical assay; listed as compound 1): ~5 times and 4.9 times; AO activity higher than that of gallic acid ([1]; ABTS as radical source): 3 fold; AO activity higher than that of syringaldehyde ([1]; ABTS as radical source): 7 fold; AO activity higher than that of vitamin C ([1]; ABTS as radical source): 7.6 fold; ABTS, times better than ascorbic acid ([1]; based on TEAC): 9.4 times; ABTS, times better than syringaldehyde ([1]; based on TEAC): 8.7 times"
30,~10,"Cc1c(C)c2c(c(C)c1O)CCC(C)(C(=O)O)O2 (stereo not drawn) [Trolox, 6-hydroxy-2,5,7,8-tetramethylchroman-2-carboxylic acid]",1.8,1,≤ 2 min,1,4,1,"protection of LDL at all antioxidant concentrations (Human LDL; 1-30 μM, 20 mM AAPH, 21 h): ineffective; time to reach a plateau of ABTS•+ absorbance suppression ([1]; 14.4 μM Trolox, 11.4 μM ascorbic acid): one"
